Patent US20260183393A1, “IMMUNOSUPPRESSANT-RESISTANT MODIFIED ALLOGENEIC MODIFIED IMMUNE CELLS AND METHODS FOR USE THEREOF” (Beam Therapeutics Inc., priority 2023, published 2026)

Assays:
Type in all cases: cell-based, human
alloreactive T cells = experiment: Mixed leukocyte reaction: priming and proliferation of alloreactive T cells with immunosuppressants; conditions: for proliferation of alloreactive T cells: CellTrace Violet-labeled T cells with PBMCs from HLA disparate donors, RPM 10^−2 to 10^−4 mg mL^−1, TAC 10^0 to 10^−2 mg mL^−1, relative to VEH; for proliferation of the T cells: rapamycin 0.001 μg/mL or tacrolimus 0.1 μg/mL, HLA-mismatched PBMCs 1:1, day 7, CellTrace dilution
Procedure: Purified primary human T cells (effector cells) from a donor (Donor #1) were labeled with CellTrace™ dye and co-cultured at a 1:1 effector-to-target cell ratio with HLA-mismatched peripheral blood mononuclear cells (PBMCs) from another donor (Donor #2) that were pretreated with mitomycin C to inhibit their growth (mitomycin C inhibits cell growth). The cells were co-cultured in the presence of the immunosuppressant rapamycin (0.001 μg/mL) or tacrolimus (0.1 μg/mL) or in the presence of dimethylsulfoxide (DMSO) in place of any immunosuppressant. The immunosuppressant or DMSO was re-administered to the cultures every 48 hours. On day 7, proliferation was measured as dilution of the CellTrace™ dye assessed using flow cytometry. The numbers at the lower-left of each plot indicate the percent of total cells counted falling within the indicated region.
First, human leukocyte antigen (HLA) mismatched peripheral blood mononuclear cells (PBMCs) from a donor were co-cultured in the presence and absence of an immunosuppressant agents with T cells from a different donor that were labeled using a CellTrace dye for measuring cell proliferation. The peripheral blood mononuclear cells (PBMC) cells were treated with mitomycin C prior to being co-cultured to prevent proliferation of the PBMC cells.
It was first determined if immunosuppressants mitigate the in vitro priming of alloreactive T cells. To do so, peripheral blood mononuclear cells and CellTrace Violet-labeled T cells from HLA disparate donors were cultured in the presence of rapamycin (RPM), tacrolimus (TAC) or vehicle (VEH) control. […] Next, it was tested whether immunosuppressants alleviated in vivo T cell-driven rejection of allogeneic HLA-I CAR-T cells. Five cohorts of human immune system (HIS) mice derived from unrelated human donors were injected daily with RPM, TAC, or VEH for 2 weeks, and at 1-day post-treatment initiation all mice were co-infused with an equal amount of allogeneic HLA^+ and HLA-deficient CAR-T cells (FIG. 16A). Cohorts #3 and #4 also received syngeneic human immune system (HIS) mouse-derived CAR-T cells to control for autologous T cell persistence. […]
For the study described in FIGS. 21A to 21C, CellTrace Violet (Thermo Fisher Scientific) CD3^+ T cells (effectors) and CD3-depleted PBMCs (targets) from HLA disparate donors were cultured in triplicate at a 1:1 ratio in complete medium supplemented with 300 U mL^−1 IL-2. […] Frequency of dividing effector CD8^+ and CD4^+ T cells was measured at day 5 and 7 post-stimulation by flow cytometry.

JeKo-1 = experiment: Cell growth kinetics with rapamycin, JeKo-1; conditions: RPM at different concentrations
Procedure: (§1) FIGS. 26A to 26E provide histograms and plots showing malignant B cell lines were sensitive to Rapamycin treatment in vitro. FIG. 26A provides histograms showing geometric median fluorescent intensity (MFI) of phosphorylated mTOR (pS2448), S6 (pS235/[…]) and 4EBP1 (pT36/T45) in JeKo-1, Raji and Nalm6 cell lines, as well as primary human monocytes and bulk lymphocytes. FIGS. 26B to 26D relate to an experiment where JeKo-1, Raji and Nalm6 cells were treated with DMSO or Rapamycin (RPM) and then analyzed for phosphorylation level of mTOR (FIG. 26B), S6 (FIG. 26C) and 4EBP1 (FIG. 26D). FIG. 26E provides plots showing JeKo-1, Raji and Nalm6 cell growth kinetics after treatment with DMSO or RPM at different concentrations. Symbols indicate mean and error bars show ±s.e.m.

Raji = experiment: Cell growth kinetics with rapamycin, Raji; conditions: RPM at different concentrations
Procedure: as §1

[1] = system: mTOR and downstream substrates S6Rp and 4E-BP1; experiment: Phosphorylation of mTOR, S6 and 4EBP1 in malignant B cell lines; conditions: JeKo-1, Raji and Nalm6 cells treated with DMSO or RPM
Procedure: as §1
Live cells were discriminated by staining negative for Fixable Viability Dye eFluor780 (eBioscience). CountBright Counting Beads were used according to the manufacturer's instructions to determine concentration of immune cells from whole blood. Intracellular cytokines were detected using Cell Fixation & Cell Permeability Kit (Invitrogen) following manufacturer's protocol with anti-human antibodies from Biolegend: TNF-a (MAb11), IFN-g (4S.B3), IL-2 (MQH-17H12) and GM-CSF (BVD2-21C11). […] Data was analyzed using FlowJo software v.10 (Tree Star).

Nalm6 = experiment: Cell growth kinetics with rapamycin, Nalm6; conditions: RPM at different concentrations
Procedure: as §1

Structure (SMILES) | proliferation of alloreactive T cells (alloreactive T cells) | proliferation of the T cells (alloreactive T cells) | in vitro proliferation (JeKo-1) | in vitro proliferation (Raji) | protein phosphorylation of mTOR and downstream substrates S6Rp and 4E-BP1 [1] | in vitro proliferation (Nalm6)
CO[C@H]1C[C@@H]2CC[C@@H](C)[C@@](O)(O2)C(=O)C(=O)N2CCCC[C@H]2C(=O)O[C@H]([C@H](C)C[C@@H]2CC[C@@H](O)[C@H](OC)C2)CC(=O)[C@H](C)/C=C(\C)[C@@H](O)[C@@H](OC)C(=O)[C@H](C)C[C@H](C)/C=C/C=C/C=C/1C [rapamycin, Rapamycin] | severely attenuated the proliferation of alloreactive T cells | hindered proliferation of the T cells | inhibited in vitro proliferation | inhibited in vitro proliferation | attenuated protein phosphorylation | inhibited in vitro proliferation
C=CC[C@@H]1/C=C(\C)C[C@H](C)C[C@H](OC)[C@H]2O[C@@](O)(C(=O)C(=O)N3CCCC[C@H]3C(=O)O[C@H](/C(C)=C/[C@@H]3CC[C@@H](O)[C@H](OC)C3)[C@H](C)[C@@H](O)CC1=O)[C@H](C)C[C@@H]2OC [tacrolimus, Tacrolimus] | severely attenuated the proliferation of alloreactive T cells | hindered proliferation of the T cells | – | – | – | –
